Data as given in paper PMC5309245, “Discovery and Characterization of Diazenylaryl Sulfonic Acids as Inhibitors of Viral and Bacterial Neuraminidases” (Frontiers in Microbiology, 2017).
Structures can show the parent of a compound that is named as a salt. Where two headings read alike, the source gives them in different places.

Experiments:
[1] = target: S. pneumoniae recombinant NanA 20566_LC (Streptococcus pneumoniae, UniProt P62575); test: biochemical; parameters: species or system Streptococcus pneumoniae DSM20566; conditions: Km for MUNANA, kinetics with 1
[2] = target: S. pneumoniae recombinant NanA 8919_LC (Streptococcus pneumoniae, UniProt P62575); test: biochemical; type: biochemical, Streptococcus pneumoniae CF8919; conditions: Km for MUNANA, kinetics with 1
[3] = target: S. pneumoniae recombinant NanA 9400_CC (Streptococcus pneumoniae, UniProt P62575); test: biochemical; type: biochemical, Streptococcus pneumoniae CJ9400; conditions: Km for MUNANA, kinetics with 1
[4] = target: Influenza virus A/WSN/33 NA-wt (whole virus) (Influenza A virus, UniProt P03470); type: biochemical, influenza A virus A/WSN/1933 (H1N1); conditions: Km for MUNANA, kinetics with 1
[5] = target: S. pneumoniae recombinant NanA 9400_LC (Streptococcus pneumoniae, UniProt P62575); test: biochemical; parameters: species or system Streptococcus pneumoniae CJ9400; conditions: Km for MUNANA, kinetics with 1
[6] = target: S. pneumoniae recombinant NanA 20566_CC (Streptococcus pneumoniae, UniProt P62575); test: biochemical; parameters: species or system Streptococcus pneumoniae DSM20566; conditions: Km for MUNANA, kinetics with 1
[7] = tested on: S. pneumoniae DSM20566; test: Bactericidal or bacteriostatic activity (subculture on blood agar); type: cell-based, Streptococcus pneumoniae DSM20566; conditions: for cfu per agar plate: 18 h, then subculture
[8] = tested on: human erythrocytes; type: cell-based
Procedure: (§1) Viral (whole virus) and bacterial NA activity as well as their inhibition were measured by using a fluorescence (FL) assay with the substrate 2′-(4-methylumbelliferyl)-α-D-N-acetylneuraminic acid sodium salt hydrate (MUNANA, 100 μM; Sigma-Aldrich GmbH, Taufkirchen, Germany), and/or a hemagglutination (HA)-based NA inhibition assay (HA assay) with human erythrocytes (Institute of Transfusion Medicine, University Hospital Jena, Jena, Germany), both assays as published recently (Richter et al., [2015]). Recombinant NanA (rNanA) and total precipitated bacterial protein of S. pneumoniae DSM20566 were used in FL and HA assays. Interference of the compounds with the FL signal (self-fluorescence and quenching) was excluded as described previously (Richter et al., [2015]). […] Each compound was tested at least three times in both NA inhibition assays.
Supplementary Table 1. […]
eTest compounds lysed the human erythrocytes (4 h at 37°C and 12 h at 4°C).

[9] = target: T1, S. pneumoniae DSM20566 NA (Streptococcus pneumoniae, UniProt P62575); test: HA-based NA inhibition assay, S. pneumoniae DSM20566; type: cell-based
T1 construct: host or cells: either rNanA from E. coli BL21(DE3) or total precipitated protein of S. pneumoniae DSM20566

[10] = in vitro; conditions: dog
[11] = tested on: 8178/09-, WSN/33-, or HK/68-induced cytopathic effect; test: CPE inhibition assay (viruses not separated); type: cell-based; conditions: Influenza A virus, MDCK, read-out: IC50 of inhibition of the 8178/09-, WSN/33-, or HK/68-induced cytopathic effect
[12] = tested on: human erythrocytes; type: cell-based; remark: listed apart in the source
Procedure: as §1
Supplementary Table 1. Assay interference phenomena of test compounds in the HA-based […]
sample concentrations [µM] in viral HA-assay bacterial HA-assay […]
hem- prevention of erythrocyte hem- erythrocyte agglutinationa virus-induced lysisc agglutinationd lysise […]
cTest compounds lysed the human erythrocytes (2 h at 4°C). […]

[13] = target: IAV HK/68 NA (whole virus) (Influenza A virus, UniProt Q91MA2); test: biochemical; parameters: species or system influenza A virus A/Hong Kong/68 (H3N2); conditions: for IC50: NA inhibition using FL assay IC50, IAV HK/68
[14] = tested on: S. pneumoniae DSM20566 biofilm; test: Biofilm inhibition assay; type: cell-based, Streptococcus pneumoniae DSM20566; conditions: for inhibition at 50 µM: Streptococcus pneumoniae, DSM20566, read-out: Inhibition of biofilm formation at the maximum tested concentration; for 50% inhibitory concentration, S. pneumoniae DSM20566 biofilm formation: 24 h, maximum 50 μM
[15] = tested on: influenza A virus WSN/33; test: microbe, parasite or virus in culture; type: cell-based, influenza A virus A/WSN/1933 (H1N1); conditions: for IC50: Influenza A virus, WSN, MDCK, 48 h, read-out: 50% inhibitory concentration, influenza A virus WSN/33
[16] = tested on: influenza A virus 8178/09; test: microbe, parasite or virus in culture; type: cell-based, influenza A virus A/Jena/8178/2009 (H1N1); conditions: for IC50: Influenza A virus, MDCK, 48 h, read-out: 50% inhibitory concentration, influenza A virus 8178/09
[17] = tested on: S. pneumoniae DSM20566; test: Microtiter broth microdilution assay, planktonic growth; type: cell-based, Streptococcus pneumoniae DSM20566; conditions: 18 h, maximum 50 μM; for IC50: Streptococcus pneumoniae, DSM20566, read-out: 50% inhibitory concentration, S. pneumoniae DSM20566 planktonic growth
[18] = target: T2, S. pneumoniae DSM20566 NA (NanA) (Streptococcus pneumoniae, UniProt P62575); test: FL NA inhibition assay, S. pneumoniae DSM20566; type: biochemical
T2 construct: host or cells: either rNanA from E. coli BL21(DE3) or total precipitated protein of S. pneumoniae DSM20566

[19] = tested on: influenza A virus HK/68; test: microbe, parasite or virus in culture; type: cell-based, influenza A virus A/Hong Kong/68 (H3N2); conditions: for IC50: Influenza A virus, MDCK, 48 h, read-out: 50% inhibitory concentration, influenza A virus HK/68
[20] = target: IAV WSN/33 NA-wt (whole virus) (Influenza A virus, UniProt P03470); test: biochemical; parameters: species or system influenza A virus A/WSN/1933 (H1N1); conditions: for IC50: NA inhibition using FL assay IC50, IAV WSN/33
[21] = tested on: IAV 5258/09 NA; test: Hemagglutination (HA)-based NA inhibition assay, IAV 5258/09; type: cell-based, influenza A virus A/Jena/5258/2009 (H1N1); conditions: human erythrocytes
[22] = human erythrocytes, 4 h at 37°C and 12 h at 4°C
[23] = MUNANA substrate, read-out: NA inhibition using FL assay IC50, S. p. DSM20566

Row | Compound | CC50 [10] | IC50 [11] | IC50 [13] | inhibition at 50 µM [14] | IC50 [15] | IC50 [16] | IC50 [17] | IC50 [19] | sample concentrations provoking erythrocyte lysis, bacterial HA-assay [8, 22] | NA inhibition using HA assay MIC, S. p. DSM20566 ([9]; human erythrocytes) | NA inhibition using FL assay IC50, IAV WSN/33 [20] | NA inhibition using HA assay MIC, IAV 5258/09 [21] | sample concentrations provoking erythrocyte lysis, viral HA-assay ([12]; human erythrocytes, 2 h at 4°C) | IC50 [18, 23] | also measured
1 | CC(=O)N[C@H]1[C@H]([C@H](O)[C@H](O)CO)O[C@@](Oc2ccc3c(C)cc(=O)oc3c2)(C(=O)O)C[C@@H]1O [MUNANA, 2′-(4-methylumbelliferyl)-α-D-N-acetylneuraminic acid sodium salt hydrate, reference compound] |  |  |  |  |  |  |  |  |  |  |  |  |  |  | Km [1]: 17.9 ± 2.12 µM; Km [2]: 18 ± 2.39 µM; Km [3]: 46.4 ± 3.93 µM; Km ([4]; 20 min preincubation): 44.2 ± 4.63 µM; Km ([4]; without preincubation (n = 2)): 40 ± 3.86 µM; Km [5]: 46.2 ± 1.71 µM; Km [6]: 20.2 ± 4.74 µM
2 | C[C@@H](O)[C@H]1C(=O)N2C(C(=O)O)=C(SCCN=CN)C[C@H]12 [Imipenem, imipenem, reference compound] |  |  |  |  |  |  |  |  |  |  |  |  |  |  | Activity (bactericidal or bacteriostatic) ([7]; 0.1 µM): bactericidal; cfu per agar plate ([7]; 0.1 µM): < 150
3 | O=S(=O)(O)c1ccc2c(/N=N/c3ccc(Sc4ccc(/N=N/c5c(O)ccc6cc(S(=O)(=O)O)ccc56)cc4)cc3)c(O)ccc2c1 [Compound 2] | > 100 µM | < 15 µM | 83 ± 5.67 µM | 47% | 11.8 ± 3.19 µM | 9.09 ± 1.94 µM | 4.59 ± 2.45 µM | 6.19 ± 4.62 µM |  |  |  |  |  |  | sample concentrations provoking erythrocyte lysis, bacterial HA-assay [8]: no; NA inhibition using HA assay MIC, S. p. DSM20566 [9]: 10.00 ± 0.00 µM; sample concentrations provoking erythrocyte lysis, viral HA-assay [12]: no; Activity (bactericidal or bacteriostatic) ([7]; 25 µM): bacteriostatic; cfu per agar plate ([7]; 25 µM): > 150; Activity (bactericidal or bacteriostatic) ([7]; 50 µM): bacteriostatic; cfu per agar plate ([7]; 50 µM): > 150; IC50 ([18]; NA inhibition using FL assay IC50, S. p. DSM20566): 1.85 ± 0.1 µM
4 | O=S(=O)(O)c1ccc2c(/N=N/c3ccc(/N=N/c4ccccc4)cc3)c(O)ccc2c1 [Compound 3] | > 100 µM | < 15 µM |  |  | 52.2 ± 17.9 µM | 14.4 ± 8.16 µM | 20.1 ± 2.24 µM | 13.6 ± 3.18 µM | no | Not active^c | Not active | Not active^c | no | 11.6 ± 0.15 µM | NA inhibition using FL assay IC50, IAV HK/68 [13]: Not active; 50% inhibitory concentration, S. pneumoniae DSM20566 biofilm formation [14]: Not active
5 | COc1cc(/N=N/c2ccc(S(=O)(=O)O)cc2)ccc1/N=N/c1c(O)ccc2ccccc12 [Compound 7] | > 100 µM | < 15 µM | 87.2 ± 8.03 µM | 46% | 78.6 ± 16.2 µM | 3.28 ± 2.19 µM | 3.32 ± 0.72 µM | 4.22 ± 0.98 µM | no | Not active^c |  | Not active^c | no | 5.6 ± 3.01 µM | IC50 [20]: 4.25 ± 1.25 µM
6 | O=S(=O)(O)c1ccc(/N=N/c2ccc(/N=N/c3ccc(O)c4ccccc34)cc2)cc1 [Compound 6] | > 100 µM | < 15 µM | 83.4 ± 3.67 µM | 46% | 24.2 ± 9.78 µM | 10.6 ± 0.71 µM | 6.14 ± 0.61 µM | 20.8 ± 1.99 µM | no | Not active^c |  | 24.40 ± 12.47 µM | no | 1.18 ± 0.55 µM | IC50 [20]: 36.4 ± 4.2 µM
7 | O=S(=O)(O)c1ccc2c(/N=N/c3ccccc3)c(O)ccc2c1 [Compound 10] | > 100 µM |  |  |  |  |  |  |  | no | Not active^c | Not active | Not active^c | no | 10.2 ± 1.35 µM | NA inhibition using FL assay IC50, IAV HK/68 [13]: Not active; 50% inhibitory concentration, S. pneumoniae DSM20566 biofilm formation [14]: Not active; 50% inhibitory concentration, influenza A virus WSN/33 [15]: Not active; 50% inhibitory concentration, influenza A virus 8178/09 [16]: Not active; 50% inhibitory concentration, S. pneumoniae DSM20566 planktonic growth [17]: Not active; 50% inhibitory concentration, influenza A virus HK/68 [19]: Not active
8 | Cc1ccccc1/N=N/c1ccc(/N=N/c2c(O)ccc3cc(S(=O)(=O)O)ccc23)c(C)c1 [Compound 4] | > 100 µM | < 15 µM | 71.1 ± 22 µM | 46% | 14 ± 2.68 µM | 12.1 ± 4.83 µM | 12 ± 6.81 µM | 13.2 ± 3.11 µM | 100 µM | Not active^c | Not active | Not active^c | no | 4.79 ± 1.31 µM | 
